Assay results from US9060988B2, “Method for treating pulmonary fibrosis using a pharmaceutical composition containing stanniocalcin 1 (STC1)” (Tohoku University, priority 2011, dated 2015).

Key:
[1] = test system: bleomycin pulmonary fibrosis model; assay: Fibrillization suppressing effect in bleomycin pulmonary fibrosis model mouse (histopathologic staining of lung); type: in vivo, C57BL6/J mice; parameters: key to 8OHDG (extent of peroxides accumulation) / HE (fibrillization) / EM (fibrillization): −: not observed; +: mild; ++: moderate; +++: severe; details: for 8OHDG staining of lung tissue (amount of peroxides, FIG. 7) / fibrillization (HE and EM stained images, FIGS. 1 to 5): bleomycin model; for 8OHDG staining of lung tissue (amount of peroxides, FIG. 7): extent similar to that of the normal lung group; for fibrillization (HE and EM stained images, FIGS. 1 to 5) / response on progression of pulmonary fibrosis: intratracheal administration; for fibrillization (HE and EM stained images, FIGS. 1 to 5): versus saline control group in which fibrillization was induced; for response on progression of pulmonary fibrosis: bleomycin pulmonary fibrosis model; for 8OHDG (extent of peroxides accumulation) / EM (fibrillization) / HE (fibrillization): lung tissue, one week after intratracheal administration together with bleomycin, STC1 500 ng, NAC 3 mg; for 8OHDG (extent of peroxides accumulation): 8OHDG staining; for EM (fibrillization): Elastica-Masson staining; for HE (fibrillization): HE staining
Excerpt: The action of STC1 was investigated using a pulmonary fibrosis model utilizing the mitotic inhibitory action of an anticancer agent, bleomycin (Bleo), as the disease model mouse.
Human recombinant (r) STC1 was produced by BioVender, Inc. Specifically, human-derived STC1 gene added with a TAG structure was introduced into the 293 cells, and rSTC1 was separated using the TAG sequence.
Specifically, C57BL6/J mice (female, 10 weeks old), four animals in each group, were anesthetized by intraperitoneally administering an anesthetic agent (obtained by diluting 300 μg of ketamine hydrochloride and […] of xylazine in 100 μL of physiological saline). Thereafter, the cervix was cut open to expose a trachea, and the jacket of a 23G SURFLO needle was inserted into the trachea. Then, the following drugs were respectively administered intratracheally through the SURFLO jackets to the mice of each group.
(1) Saline control group: 50 μL of bleomycin-containing physiological saline (bleomycin concentration: 400 ng/mL)
(2) STC1-administered group: 500 ng of STC1+50 μL of bleomycin-containing physiological saline
(3) NAC-administered group (positive control): 3 mg of NAC+50 μL of bleomycin-containing physiological saline
(4) Normal lung group: 50 μL of physiological saline
After one week, the mice were euthanized by anesthetizing the mice as described above and then cutting the carotid artery, and subsequently, the lungs were removed. The extirpated lung tissues were subjected to histopathologic staining (HE (hematoxylin eosin) staining, EM (Elastica-Masson staining), and 8OHDG staining) by standard methods.

[2] = literature report; cited from earlier work

Molecule | 8OHDG staining of lung tissue (amount of peroxides, FIG. 7) [1] | fibrillization (HE and EM stained images, FIGS. 1 to 5) [1] | response on progression of pulmonary fibrosis [1] | 8OHDG (extent of peroxides accumulation) [1] | EM (fibrillization) [1] | HE (fibrillization) [1] | suppression of the immune system [2]
CC(=O)N[C@@H](CS)C(=O)O [NAC, N-acetylcysteine, reference compound] | poorly stained | fibrillization was suppressed | amelioration | + | +~++ | +~++ | –
Stanniocalcin 1 [STC1] | poorly stained | fibrillization was suppressed | complete response | + | + | + | does not cause suppression of the immune system
